Patent publication US11759455B2, “Substituted 1H-imidazo[4,5-b]pyridin-2(3H)-ones and their use as GLUN2B receptor modulators” (JANSSEN PHARMACEUTICA NV, priority 2016, dated 2023)
Like-named read-outs stand apart in the source and are kept apart here.

Biological target: T1, human GluN1/GluN2B NMDA receptors (Homo sapiens, UniProt Q13224)
T1 construct: expressed in transfected cells
Test: Cell-based calcium flux (FLIPR) assay on cloned human NR1/NR2B ion channels expressed in mammalian cells (standard and HTS buffer variants);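 further: stable Tet-On inducible cell line, Ca2+ influx triggered by glutamate at about EC40 plus 10 µM glycine, fluorescent dye read-out over 5 min, normalized to control wells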

[1] = standard assay buffer (0.5 mM MgCl2 in dye loading buffer; 137 mM NaCl, 4 mM KCl in assay buffer), human GluN1/GluN2B, read-out: NR2B IC50 (μM) standard assay
[2] = standard assay buffer (0.5 mM MgCl2 dye loading; 137 mM NaCl, 4 mM KCl assay buffer), human GluN1/GluN2B cells, read-out: NR2B IC50 (μM) standard assay
[3] = HTS assay buffer (1.5 mM MgCl2 in dye loading buffer; 150 mM NaCl, 3 mM KCl in assay buffer), human GluN1/GluN2B, read-out: NR2B IC50 (μM) HTS assay

T1 sequence (Q13224 27-1484, other chains not shown): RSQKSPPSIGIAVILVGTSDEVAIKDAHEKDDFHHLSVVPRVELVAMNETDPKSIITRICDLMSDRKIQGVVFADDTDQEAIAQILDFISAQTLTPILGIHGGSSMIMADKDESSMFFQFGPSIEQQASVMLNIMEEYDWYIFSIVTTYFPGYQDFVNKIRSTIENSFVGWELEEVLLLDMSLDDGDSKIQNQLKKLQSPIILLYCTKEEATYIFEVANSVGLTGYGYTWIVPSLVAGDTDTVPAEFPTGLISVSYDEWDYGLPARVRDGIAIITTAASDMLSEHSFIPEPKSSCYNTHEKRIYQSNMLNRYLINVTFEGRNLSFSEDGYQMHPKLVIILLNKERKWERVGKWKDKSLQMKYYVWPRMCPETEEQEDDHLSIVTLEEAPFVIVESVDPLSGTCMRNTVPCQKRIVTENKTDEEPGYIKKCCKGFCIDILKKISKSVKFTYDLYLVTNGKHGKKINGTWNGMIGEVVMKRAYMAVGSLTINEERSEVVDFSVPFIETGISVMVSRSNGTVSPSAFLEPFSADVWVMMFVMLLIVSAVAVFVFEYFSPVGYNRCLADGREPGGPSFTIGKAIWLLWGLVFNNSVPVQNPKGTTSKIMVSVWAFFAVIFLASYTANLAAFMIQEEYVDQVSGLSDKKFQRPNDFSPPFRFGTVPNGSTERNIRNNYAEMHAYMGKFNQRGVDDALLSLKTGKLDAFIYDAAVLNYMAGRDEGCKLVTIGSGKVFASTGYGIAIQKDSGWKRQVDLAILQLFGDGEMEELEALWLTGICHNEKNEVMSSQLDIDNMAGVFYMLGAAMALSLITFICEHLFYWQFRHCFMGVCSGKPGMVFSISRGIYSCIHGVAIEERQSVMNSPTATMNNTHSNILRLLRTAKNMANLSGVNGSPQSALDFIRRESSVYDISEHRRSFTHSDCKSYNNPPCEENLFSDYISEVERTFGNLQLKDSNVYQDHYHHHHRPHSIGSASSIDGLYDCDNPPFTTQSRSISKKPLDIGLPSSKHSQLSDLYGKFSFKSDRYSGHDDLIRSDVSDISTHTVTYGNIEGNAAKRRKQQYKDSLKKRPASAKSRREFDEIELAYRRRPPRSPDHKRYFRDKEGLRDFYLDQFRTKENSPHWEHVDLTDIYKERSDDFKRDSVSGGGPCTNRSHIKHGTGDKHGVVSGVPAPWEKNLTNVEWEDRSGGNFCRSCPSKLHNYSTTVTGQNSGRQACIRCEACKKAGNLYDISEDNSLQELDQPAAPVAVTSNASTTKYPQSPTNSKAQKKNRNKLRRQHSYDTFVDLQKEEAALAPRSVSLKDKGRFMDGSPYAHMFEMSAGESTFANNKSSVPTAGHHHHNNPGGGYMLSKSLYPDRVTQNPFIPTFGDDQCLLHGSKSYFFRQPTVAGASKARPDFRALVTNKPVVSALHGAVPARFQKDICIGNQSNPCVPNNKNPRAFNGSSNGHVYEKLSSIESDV

Cn1c(=O)n(Cc2cncc(F)c2)c2cc(-c3cc(F)c(F)c(F)c3)cnc21 [Example 344, 1-[(5-Fluoro-3-pyridyl)methyl]-3-methyl-6-(3,4,5-trifluorophenyl)imidazo[4,5-b]pyridin-2-one]
IC50 [1]: 0.518 µM

Cn1c(=O)n(CC(=O)N2CC(F)(F)C2)c2cc(-c3cccc(C(F)(F)F)c3F)cnc21 [Example 415, 1-[2-(3,3-Difluoroazetidin-1-yl)-2-oxo-ethyl]-6-[2-fluoro-3-(trifluoromethyl)phenyl]-3-methyl-imidazo[4,5-b]pyridin-2-one]
IC50 [1]: 0.015 µM

Cc1cc(Cn2c(=O)[nH]c3ncc(-c4ccccc4)cc32)no1 [Example 11, 1-[(5-Methylisoxazol-3-yl)methyl]-6-phenyl-3H-imidazo[4,5-b]pyridin-2-one]
IC50 [2]: 0.088 µM

CCCNCCn1c(=O)[nH]c2ncc(-c3cc(F)cc(F)c3)cc21 [Example 189, 6-(3,5-Difluorophenyl)-1-[2-(propylamino)ethyl]-3H-imidazo[4,5-b]pyridin-2-one]
IC50 [2]: 2.57 µM

CN(C)C(=O)Cn1c(=O)n(C)c2ncc(-c3cccc(F)c3F)cc21 [Example 425, 2-[6-(2,3-Difluorophenyl)-3-methyl-2-oxo-imidazo[4,5-b]pyridin-1-yl]-N,N-dimethyl-acetamide]
IC50 [1]: 0.408 µM

Cc1ccc(C(F)(F)F)cc1-c1cnc2[nH]c(=O)n(CC(=O)N3CCC3)c2c1 [Example 29, 1-[2-(Azetidin-1-yl)-2-oxo-ethyl]-6-[2-methyl-5-(trifluoromethyl)phenyl]-3H-imidazo[4,5-b]pyridin-2-one]
IC50 [2]: 0.396 µM

Cc1cc(F)ccc1-c1cnc2[nH]c(=O)n(CC(=O)N3CCC3)c2c1 [Example 320, 1-[2-(Azetidin-1-yl)-2-oxo-ethyl]-6-(4-fluoro-2-methyl-phenyl)-3H-imidazo[4,5-b]pyridin-2-one]
IC50 [1]: 0.075 µM

Cn1c(=O)n(CC(=O)N2CC(F)(F)C2)c2cc(-c3cccc(F)c3)cnc21 [Example 417, 1-[2-(3,3-Difluoroazetidin-1-yl)-2-oxo-ethyl]-6-(3-fluorophenyl)-3-methyl-imidazo[4,5-b]pyridin-2-one]
IC50 [1]: 0.031 µM

O=c1[nH]c2ncc(-c3cccc(C(F)(F)F)c3)cc2n1Cc1cccnc1 [Example 230, 1-(3-Pyridylmethyl)-6-[3-(trifluoromethyl)phenyl]-3H-imidazo[4,5-b]pyridin-2-one]
IC50 [2]: 0.017 µM

Cc1cncc(Cn2c(=O)[nH]c3ncc(-c4cccc(F)c4F)cc32)c1 [Example 310, 6-(2,3-Difluorophenyl)-1-[(5-methyl-3-pyridyl)methyl]-3H-imidazo[4,5-b]pyridin-2-one]
IC50 [2]: 0.088 µM

O=c1[nH]c2ncc(-c3ccnc(C(F)(F)F)c3)cc2n1CCN1CCC1 [Example 155, 1-[2-(Azetidin-1-yl)ethyl]-6-[2-(trifluoromethyl)-4-pyridyl]-3H-imidazo[4,5-b]pyridin-2-one]
IC50 [2]: 1.75 µM

O=c1[nH]cccc1Cn1c(=O)[nH]c2ncc(-c3cccc(C(F)(F)F)c3)cc21 [Example 32, 1-[(2-Oxo-1H-pyridin-3-yl)methyl]-6-[3-(trifluoromethyl)phenyl]-3H-imidazo[4,5-b]pyridin-2-one]
IC50 [2]: 8.33 µM

O=c1[nH]c2ncc(-c3cccc(C(F)(F)F)c3)cc2n1Cc1cccc(Cl)c1 [Example 21, 1-[(3-Chlorophenyl)methyl]-6-[3-(trifluoromethyl)phenyl]-3H-imidazo[4,5-b]pyridin-2-one]
IC50 [2]: 1.34 µM

Cn1c(=O)n(Cc2cncc(F)c2)c2cc(-c3ccc(F)c(F)c3)cnc21 [Example 343, 6-(3,4-Difluorophenyl)-1-[(5-fluoro-3-pyridyl)methyl]-3-methyl-imidazo[4,5-b]pyridin-2-one]
IC50 [1]: 0.256 µM

CCOc1ccc(F)cc1-c1cnc2[nH]c(=O)n(Cc3cccc(F)c3)c2c1 [Example 494, 6-(2-Ethoxy-5-fluoro-phenyl)-1-[(3-fluorophenyl)methyl]-3H-imidazo[4,5-b]pyridin-2-one]
IC50 [3]: 5.64 µM

Cn1c(=O)n(Cc2cncc(F)c2)c2cc(-c3cccc(OC(F)F)c3)cnc21 [Example 342, 6-[3-(Difluoromethoxy)phenyl]-1-[(5-fluoro-3-pyridyl)methyl]-3-methyl-imidazo[4,5-b]pyridin-2-one]
IC50 [1]: 0.138 µM

O=c1[nH]c2ncc(-c3cccc(C(F)(F)F)c3)cc2n1CCN1CC(F)(F)C1 [Example 167, 1-[2-(3,3-Difluoroazetidin-1-yl)ethyl]-6-[3-(trifluoromethyl)phenyl]-3H-imidazo[4,5-b]pyridin-2-one]
IC50 [2]: 0.158 µM

Cc1cc(F)ccc1-c1cnc2[nH]c(=O)n(Cc3ccc(F)cc3)c2c1 [Example 492, 6-(4-Fluoro-2-methyl-phenyl)-1-[(4-fluorophenyl)methyl]-3H-imidazo[4,5-b]pyridin-2-one]
IC50 [3]: 6.12 µM

COc1ccc(-c2cnc3[nH]c(=O)n(CC(=O)N4CCOCC4)c3c2)cc1 [Example 1, 6-(4-Methoxyphenyl)-1-(2-morpholino-2-oxo-ethyl)-3H-imidazo[4,5-b]pyridin-2-one]
IC50 [2]: 2.74 µM

Cc1ccccc1-c1cnc2[nH]c(=O)n(CCN3CC(F)C3)c2c1 [Example 186, 1-[2-(3-Fluoroazetidin-1-yl)ethyl]-6-(o-tolyl)-3H-imidazo[4,5-b]pyridin-2-one]
IC50 [2]: 1.34 µM

Cn1c(=O)n(Cc2csnn2)c2cc(-c3ccc(C(F)(F)F)s3)cnc21 [Example 568, 3-Methyl-1-(thiadiazol-4-ylmethyl)-6-[5-(trifluoromethyl)-2-thienyl]imidazo[4,5-b]pyridin-2-one]
IC50 [1]: 0.305 µM

Cn1cc(Cn2c(=O)[nH]c3ncc(-c4ccc(F)cc4)cc32)nn1 [Example 142, 6-(4-Fluorophenyl)-1-[(1-methyltriazol-4-yl)methyl]-3H-imidazo[4,5-b]pyridin-2-one]
IC50 [2]: 0.208 µM

Cn1c(=O)n(Cc2cncc(F)c2)c2cc(-c3cccc(Cl)c3)cnc21 [Example 348, 6-(3-Chlorophenyl)-1-[(5-fluoro-3-pyridyl)methyl]-3-methyl-imidazo[4,5-b]pyridin-2-one]
IC50 [1]: 0.213 µM

Cn1c(=O)n(Cc2csnn2)c2cc(-c3ccc(C(F)F)s3)cnc21 [Example 562, 6-[5-(Difluoromethyl)-2-thienyl]-3-methyl-1-(thiadiazol-4-ylmethyl)imidazo[4,5-b]pyridin-2-one]
IC50 [1]: 0.166 µM

O=C(Cn1c(=O)[nH]c2ncc(-c3cccc(C(F)(F)F)c3)cc21)NC1CCCC1 [Example 205, N-Cyclopentyl-2-[2-oxo-6-[3-(trifluoromethyl)phenyl]-3H-imidazo[4,5-b]pyridin-1-yl]acetamide]
IC50 [2]: 0.523 µM

Cn1c(=O)n(CC(=O)N2CC(F)(F)C2)c2cc(-c3cccc(C(F)(F)F)c3)cnc21 [Example 138, 1-[2-(3,3-difluoroazetidin-1-yl)-2-oxo-ethyl]-3-methyl-6-[3-(trifluoromethyl)phenyl]imidazo[4,5-b]pyridin-2-one]
IC50 [2]: 0.089 µM

Cc1cncc(Cn2c(=O)[nH]c3ncc(-c4cc(F)cc(F)c4)cc32)c1 [Example 311, 6-(3,5-Difluorophenyl)-1-[(5-methyl-3-pyridyl)methyl]-3H-imidazo[4,5-b]pyridin-2-one]
IC50 [2]: 0.028 µM

Cc1cccc(-c2cnc3c(c2)n(CC(=O)N(C)C)c(=O)n3C)c1 [Example 583, N,N-Dimethyl-2-[3-methyl-6-(m-tolyl)-2-oxo-imidazo[4,5-b]pyridin-1-yl]acetamide]
IC50 [1]: 0.051 µM

Cn1ccc(Cn2c(=O)[nH]c3ncc(-c4ccc(F)c(F)c4)cc32)n1 [Example 131, 6-(3,4-Difluorophenyl)-1-[(1-methylpyrazol-3-yl)methyl]-3H-imidazo[4,5-b]pyridin-2-one]
IC50 [2]: 3.56 µM

O=c1[nH]c2ncc(-c3cccc(C(F)(F)F)c3)cc2n1Cc1cnccc1C(F)(F)F [Example 260, 6-[3-(Trifluoromethyl)phenyl]-1-[[4-(trifluoromethyl)-3-pyridyl]methyl]-3H-imidazo[4,5-b]pyridin-2-one]
IC50 [2]: 2.86 µM

COc1cc(F)ccc1-c1cnc2[nH]c(=O)n(Cc3ccccc3C#N)c2c1 [Example 490, 2-[[6-(4-Fluoro-2-methoxy-phenyl)-2-oxo-3H-imidazo[4,5-b]pyridin-1-yl]methyl]benzonitrile]
IC50 [1]: 0.046 µM

Cc1cc(-c2cnc3c(c2)n(CC(=O)N(C)C)c(=O)n3C)sc1Cl [Example 322, 2-[6-(5-Chloro-4-methyl-2-thienyl)-3-methyl-2-oxo-imidazo[4,5-b]pyridin-1-yl]-N,N-dimethyl-acetamide]
IC50 [1]: 0.023 µM

Cc1cc(-c2cnc3[nH]c(=O)n(CC(=O)N(C)C)c3c2)sc1Cl [Example 321, 2-[6-(5-Chloro-4-methyl-2-thienyl)-2-oxo-3H-imidazo[4,5-b]pyridin-1-yl]-N,N-dimethyl-acetamide]
IC50 [1]: 0.014 µM

Cc1ccc(-c2cnc3c(c2)n(Cc2cn(C)nn2)c(=O)n3C)s1 [Example 553, 3-Methyl-6-(5-methyl-2-thienyl)-1-[(1-methyltriazol-4-yl)methyl]imidazo[4,5-b]pyridin-2-one]
IC50 [1]: 0.726 µM

Cc1cccc(-c2cnc3c(c2)n(Cc2cccnc2)c(=O)n3C)c1 [Example 356, 3-Methyl-6-(m-tolyl)-1-(3-pyridylmethyl)imidazo[4,5-b]pyridin-2-one]
IC50 [1]: 0.07 µM

Cn1c(=O)n(Cc2ncccn2)c2cc(-c3cccc(C(F)(F)F)c3)cnc21 [Example 261, 3-Methyl-1-(pyrimidin-2-ylmethyl)-6-[3-(trifluoromethyl)phenyl]imidazo[4,5-b]pyridin-2-one]
IC50 [2]: 0.573 µM

O=c1ccc(Cn2c(=O)[nH]c3ncc(-c4cccc(C(F)(F)F)c4)cc32)c[nH]1 [Example 244, 1-[(6-Oxo-1H-pyridin-3-yl)methyl]-6-[3-(trifluoromethyl)phenyl]-3H-imidazo[4,5-b]pyridin-2-one]
IC50 [2]: 1.89 µM

Cn1c(=O)n(CC(=O)NC2(C)COC2)c2cc(-c3cccc(C(F)(F)F)c3)cnc21 [Example 199, N-(3-Methyloxetan-3-yl)-2-[3-methyl-2-oxo-6-[3-(trifluoromethyl)phenyl]imidazo[4,5-b]pyridin-1-yl]acetamide]
IC50 [2]: 2.66 µM
